Results as given in PMC2131780, “A Tale of Switched Functions: From Cyclooxygenase Inhibition to M-Channel Modulation in New Diphenylamine Derivatives” (PLoS ONE, 2007).

Legend:
[1] = target: T1, Kv7.2/3 K+ channels (M-channels) (Homo sapiens, UniProt O43525+O43526); assay: Whole-cell patch-clamp of recombinant Kv7.2/3 channels in CHO cells; type: cell-based; conditions: for V50 of Kv7.2/3 activation: n = 5; for fold increase in Kv7.2/3 current amplitude: step −90 to −50 mV
T1 construct: expressed in transfected cells; host or cells: CHO cells
T1 sequence (O43526 whole entry): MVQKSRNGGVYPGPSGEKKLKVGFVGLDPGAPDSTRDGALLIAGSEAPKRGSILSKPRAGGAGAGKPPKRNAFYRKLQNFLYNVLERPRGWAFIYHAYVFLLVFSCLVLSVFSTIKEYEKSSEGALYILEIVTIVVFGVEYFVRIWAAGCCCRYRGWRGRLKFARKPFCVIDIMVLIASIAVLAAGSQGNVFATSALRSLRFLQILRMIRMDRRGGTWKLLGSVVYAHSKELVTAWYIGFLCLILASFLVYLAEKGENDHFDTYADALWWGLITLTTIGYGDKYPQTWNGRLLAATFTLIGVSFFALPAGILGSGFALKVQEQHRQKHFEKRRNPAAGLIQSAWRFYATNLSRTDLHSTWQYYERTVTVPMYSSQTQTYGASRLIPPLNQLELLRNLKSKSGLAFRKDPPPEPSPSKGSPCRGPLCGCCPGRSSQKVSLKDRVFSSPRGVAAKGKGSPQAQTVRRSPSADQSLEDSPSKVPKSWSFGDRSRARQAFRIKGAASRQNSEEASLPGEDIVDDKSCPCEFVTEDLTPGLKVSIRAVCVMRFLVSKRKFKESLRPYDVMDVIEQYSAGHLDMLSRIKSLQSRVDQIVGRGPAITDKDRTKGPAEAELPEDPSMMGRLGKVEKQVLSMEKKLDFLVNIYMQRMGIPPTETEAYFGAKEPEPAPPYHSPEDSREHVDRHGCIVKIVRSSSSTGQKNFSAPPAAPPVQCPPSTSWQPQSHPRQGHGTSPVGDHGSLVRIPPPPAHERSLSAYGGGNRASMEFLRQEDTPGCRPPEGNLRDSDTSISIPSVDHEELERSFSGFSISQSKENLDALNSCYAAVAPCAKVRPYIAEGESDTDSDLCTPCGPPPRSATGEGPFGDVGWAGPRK
T1 sequence (O43525 whole entry): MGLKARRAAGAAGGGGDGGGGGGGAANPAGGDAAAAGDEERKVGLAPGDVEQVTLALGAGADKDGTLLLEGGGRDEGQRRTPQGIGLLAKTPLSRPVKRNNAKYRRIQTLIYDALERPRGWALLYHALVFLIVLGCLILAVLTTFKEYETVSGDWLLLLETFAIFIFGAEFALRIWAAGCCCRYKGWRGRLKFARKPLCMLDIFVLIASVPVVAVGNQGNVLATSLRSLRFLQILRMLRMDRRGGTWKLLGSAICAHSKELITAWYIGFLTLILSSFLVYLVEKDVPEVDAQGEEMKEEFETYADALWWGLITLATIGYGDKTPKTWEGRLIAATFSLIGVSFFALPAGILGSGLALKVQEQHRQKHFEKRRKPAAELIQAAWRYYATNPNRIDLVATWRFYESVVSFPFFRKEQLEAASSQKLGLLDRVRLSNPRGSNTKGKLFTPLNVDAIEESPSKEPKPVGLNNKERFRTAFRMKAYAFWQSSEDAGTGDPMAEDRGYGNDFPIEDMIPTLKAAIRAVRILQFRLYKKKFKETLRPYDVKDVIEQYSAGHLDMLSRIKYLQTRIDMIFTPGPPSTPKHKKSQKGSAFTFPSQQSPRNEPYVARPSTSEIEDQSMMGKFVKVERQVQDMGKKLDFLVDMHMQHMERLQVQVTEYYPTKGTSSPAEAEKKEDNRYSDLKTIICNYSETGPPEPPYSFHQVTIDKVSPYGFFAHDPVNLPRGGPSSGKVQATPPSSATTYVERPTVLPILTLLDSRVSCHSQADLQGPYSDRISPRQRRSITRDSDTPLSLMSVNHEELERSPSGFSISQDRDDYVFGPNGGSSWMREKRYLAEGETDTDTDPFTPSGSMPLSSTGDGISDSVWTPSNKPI
Method: Chinese hamster ovary (CHO) cells were grown in Dulbecco's modified Eagle's medium (DMEM) supplemented with 2 mM glutamine, 10% fetal calf serum and antibiotics. Briefly, 40,000 cells seeded on poly-D-lysine-coated glass coverslips (13 mm diameter) in a 24-multiwell plate were transfected with pIRES-CD8 (0.5 µg) as a marker for transfection, and with Kv7.2 (0.5 µg) and Kv7.3 (0.5 µg). For electrophysiology, transfected cells were visualized approximately 40 hours following transfection, using anti-CD8 antibody-coated beads. Transfection was performed using Fugene 6 (Roche, Indianapolis IN, USA) according to the manufacturer's protocol.
Voltage-clamp recordings in CHO cells were performed, using the whole-cell configuration of the patch-clamp technique. Signals were amplified using an Axopatch 200B patch-clamp amplifier (Molecular Devices, Sunnyvale, CA), sampled at 2 kHz and filtered at 800 Hz via a 4-pole Bessel low pass filter. […] The patch pipettes were pulled from borosilicate glass (Warner Instrument Corp, USA) with a resistance of 2–5 MΩ. For K^+ current recordings in CHO cells, the intracellular pipette solution contained (in mM): 130 KCl, 1 MgCl2, 5 K2ATP, 5 EGTA, 10 HEPES, adjusted with KOH to pH 7.4 (290 mOsm). The extracellular solution contained (in mM): 140 NaCl, 4 KCl, 1.8 CaCl2, 1.2 MgCl2, 11 glucose, 5.5 HEPES, adjusted with NaOH to pH 7.4 (310 mOsm). Series resistances (3–13 MΩ) were compensated (75–90%) and periodically monitored.
Data analysis was performed using the Clampfit program (pClamp 9.2, Molecular Devices), Microsoft Excel (Microsoft) and Prism 4.0 (GraphPad). Chord conductance (G) was calculated by using the following equation: [drawing 1] where I corresponds to the current amplitude measured at the end of the pulse and Vrev, the calculated reversal potential. G was estimated at various test voltages V and then, normalized to a maximal conductance value, Gmax. Activation curves were fitted by one Boltzmann distribution: [drawing 2] where V50 is the voltage at which the current is half-activated and s is the slope factor. All data were expressed as mean±SEM. Statistically significant differences were assessed by Student's t-test. Analysis of sEPSCs and sIPSCs was done using the Clampfit program (pClamp 9.2, Molecular Devices) and included evaluation of the individual events as well as the average event amplitude and the integral of the event (total charge transfer).

[2] = tested on: primary hippocampal neurons (glutamate and GABA release); assay: Spontaneous and miniature post-synaptic currents in cultured hippocampal neurons; type: cell-based, rat
Method: Because of their slow activation and their lack of inactivation, M-channels could modulate neuronal activity during repetitive spike discharge and tune neurotransmitter release. Figure 8 illustrates the effect of compound 15 on synaptic transmission and transmitter release. Spontaneous excitatory and inhibitory post-synaptic currents (sEPSCs and sIPSCs) were recorded from dense cultures of primary hippocampal neurons, using the voltage-clamp configuration of the whole-cell patch-clamp technique. […] Spontaneous EPSCs were recorded at −70 mV and were pharmacologically isolated by blocking GABAA receptor-mediated inhibitory post-synaptic currents (with 10 µM bicuculline and 30 µM picrotoxin). The sEPSCs were […] mediated by the activation of AMPA receptors and to a lesser extent of NMDA receptors, as they were blocked by 10 µM NBQX and 10 µM AP-5. Thus, sEPSCs reflect the synaptic release of glutamate. Under control conditions, sEPSCs appeared as repetitive bursts whose frequency was variable, ranging from 0.3 to 2 Hz and increasing with the density of the hippocampal culture. […] Consequently, compound 15 reduced by about 50% the total charge transfer as well as the charge transfer within the bursts (Figure 8D–F).
For hippocampal neuronal cultures, Sprague-Dawley rat embryos (E18) were removed by caesarian section and their hippocampi were dissected out. […]
Spontaneous excitatory postsynaptic currents (EPSCs) were recorded in the voltage-clamp configuration of the whole-cell patch-clamp technique at a holding potential of −70 mV as previously described; the extracellular solution contained (in mM) 160 NaCl, 2.5 KCl, 10 HEPES, 10 glucose, 2 CaCl2; pH 7.3 (325 mOsm), to which 30 µM picrotoxin and 10 µM bicuculline methyl iodide were added. […] Spontaneous inhibitory postsynaptic currents (IPSCs) were recorded at a holding potential of −70 mV; the extracellular solution contained (in mM) 160 NaCl, 2.5 KCl, 10 HEPES, 10 glucose, 2 CaCl2; pH 7.3 (325 mOsm), to which 10 µM NBQX and 10 µM AP-5 were added. […]

O=C(Cc1cc([N+](=O)[O-])ccc1Nc1c(Cl)cccc1Cl)OCCO [Compound 15]
left-shift of Kv7.2/3 activation curve ([1]; 10 µM): −11 mV
V50 of Kv7.2/3 activation ([1]; 10 µM): −43.6±9.0 mV
fold increase in Kv7.2/3 current amplitude ([1]; 10 µM): 3.2 fold
activation kinetics t1/2 of Kv7.2/3 ([1]; 25 µM, at −20 mV): 0.171 ± 0.029 s
deactivation time constant τdeact of Kv7.2/3 ([1]; 25 µM, tail currents at −60 mV): 284 ± 43 ms
left-shift of Kv7.2/3 activation curve ([1]; 50 µM): −21 mV
V50 of Kv7.2/3 activation ([1]; 50 µM): −53.5±9.3 mV
fold increase in Kv7.2/3 current amplitude ([1]; 50 µM): 9.1 fold
left-shift of Kv7.2/3 activation curve ([1]; 200 µM): −31 mV
V50 of Kv7.2/3 activation ([1]; 200 µM): −63.1±2.0 mV
ΔV50 (mV), left-shift in half-activation potential ([1]; Kv7.2/3 in CHO cells): −31.0 mV
M-channels (Kv7.2/Kv7.3) effect (opener / blocker / inactive) ([1]; Kv7.2 and Kv7.3 coexpressed in CHO cells): opener
EC50 ([1]; concentration-dependent left-shift ΔV50, sigmoidal fit, read-out: M-channel opener potency EC50): 22 µM
reduction of sEPSCs total charge transfer and charge transfer within bursts ([2]; 25 µM, holding −70 mV): about 50%
inhibition at 25 µM ([2]; Rattus norvegicus, Hippocampal neuron, 25 µM, holding −70 mV, read-out: inhibition of sIPSCs frequency of spontaneous occurrence): > 98%
effect on amplitude and kinetics of miniature EPSCs and IPSCs ([2]; not shown): did not affect
